Where two headings read alike, the source gives them in different places.
How the values were obtained:
Assay in all cases: Test A pre/postemergence
Type in all cases: in vivo
[1] = test system: morningglory (Ipomoea spp.); conditions: for pest or weed control at 125 g/ha / pest or weed control at 500 g/ha: Ipomoea, 240 h, read-out: Plant response rating, Morningglory
Procedure: (§1) Seeds of barnyardgrass (Echinochloa crus-galli), crabgrass (Digitaria sanguinalis), giant foxtail (Setaria faberi), morningglory (Ipomoea spp.), redroot pigweed (Amaranthus retroflexus) and velvetleaf (Abutilon theophrasti) were planted into a blend of loam soil and sand and treated preemergence with a directed soil spray using test chemicals formulated in a non-phytotoxic solvent mixture which included a surfactant. At the same time these species were also treated with postemergence applications of test chemicals formulated in the same manner.
(§2) Plants ranged in height from 2 to 10 cm and were in the 1- to 2-leaf stage for the postemergence treatment. Treated plants and untreated controls were maintained in a greenhouse for approximately ten days, after which time all treated plants were compared to untreated controls and visually evaluated for injury. Plant response ratings, summarized in Table A, are based on a 0 to 100 scale where 0 is no effect and 100 is complete control. A dash (-) response means no test results.

[2] = test system: barnyardgrass (Echinochloa crus-galli); conditions: for pest or weed control at 125 g/ha / pest or weed control at 500 g/ha: Echinochloa crus-galli, 240 h, read-out: Plant response rating, Barnyardgrass
Procedure: as §1, §2

[3] = test system: velvetleaf (Abutilon theophrasti); conditions: for pest or weed control at 125 g/ha / pest or weed control at 500 g/ha: Abutilon theophrasti, 240 h, read-out: Plant response rating, Velvetleaf
Procedure: as §1, §2

[4] = test system: giant foxtail (Setaria faberi); conditions: for pest or weed control at 125 g/ha / pest or weed control at 500 g/ha: Setaria faberi, 240 h, read-out: Plant response rating, Foxtail, Giant
Procedure: as §1, §2

[5] = test system: redroot pigweed (Amaranthus retroflexus); conditions: for pest or weed control at 125 g/ha / pest or weed control at 500 g/ha: Amaranthus retroflexus, 240 h, read-out: Plant response rating, Pigweed
Procedure: as §1, §2

[6] = test system: crabgrass (Digitaria sanguinalis); conditions: for pest or weed control at 125 g/ha / pest or weed control at 500 g/ha: Digitaria sanguinalis, 240 h, read-out: Plant response rating, Crabgrass
Procedure: as §1, §2

[7] = post-emergence, Postemergence, 125 g ai/ha, 0 to 100 scale (0 no effect, 100 complete control)
[8] = post-emergence, Postemergence, 500 g ai/ha, 0 to 100 scale (0 no effect, 100 complete control)
[9] = pre-emergence, Preemergence, 125 g ai/ha, 0 to 100 scale where 0 is no effect and 100 is complete control, approximately ten days
[10] = pre-emergence, Preemergence, 500 g ai/ha, 0 to 100 scale where 0 is no effect and 100 is complete control, approximately ten days
[11] = Postemergence, 125 g ai/ha, 0 to 100 scale (0 no effect, 100 complete control)
[12] = Postemergence, 500 g ai/ha, 0 to 100 scale (0 no effect, 100 complete control)
[13] = Preemergence, 125 g ai/ha, 0 to 100 scale where 0 is no effect and 100 is complete control, approximately ten days
[14] = Preemergence, 500 g ai/ha, 0 to 100 scale where 0 is no effect and 100 is complete control, approximately ten days

With `NC(=O)c1nc(C2CC2)nc(N)c1Br` [Compound 20] the pest or weed control at 125 g/ha [1, 7] was 20%, the pest or weed control at 500 g/ha [1, 8] was 40% and the pest or weed control at 125 g/ha [1, 9] was 10%. For the same molecule, the pest or weed control at 500 g/ha [1, 10] was 60%, the pest or weed control at 125 g/ha [2, 7] was 0% and the pest or weed control at 500 g/ha [2, 8] was 0%. It also gave a pest or weed control at 125 g/ha [2, 9] of 0%, a pest or weed control at 500 g/ha [2, 10] of 0% and a pest or weed control at 125 g/ha [3, 7] of 10%. The pest or weed control at 500 g/ha [3, 8] was 55%, the pest or weed control at 125 g/ha [3, 9] was 0% and the pest or weed control at 500 g/ha [3, 10] was 70%. It also gave a pest or weed control at 125 g/ha [4, 7] of 0%, a pest or weed control at 500 g/ha [4, 8] of 0% and a pest or weed control at 125 g/ha [4, 9] of 0%. It also gave a pest or weed control at 500 g/ha [4, 10] of 0%, a pest or weed control at 125 g/ha [5, 7] of 40% and a pest or weed control at 500 g/ha [5, 8] of 60%. For the same molecule, the pest or weed control at 125 g/ha [5, 9] was 40%, the pest or weed control at 500 g/ha [5, 10] was 70% and the pest or weed control at 125 g/ha [6, 7] was 0%. The pest or weed control at 500 g/ha [6, 8] was 0%, the pest or weed control at 125 g/ha [6, 9] was 0% and the pest or weed control at 500 g/ha [6, 10] was 0%.

With `COC(=O)c1nc(-c2ccc(C)cc2)nc(N)c1Br` [Compound 82] the “Plant response rating, Morningglory” value [1, 11] was 20, the “Plant response rating, Morningglory” value [1, 12] was 40 and the “Plant response rating, Morningglory” value [1, 13] was 0. The “Plant response rating, Morningglory” value [1, 14] was 0, the “Plant response rating, Barnyardgrass” value [2, 11] was 40 and the “Plant response rating, Barnyardgrass” value [2, 12] was 50. For the same molecule, the “Plant response rating, Barnyardgrass” value [2, 13] was 0, the “Plant response rating, Barnyardgrass” value [2, 14] was 15 and the “Plant response rating, Velvetleaf” value [3, 11] was 90. The “Plant response rating, Velvetleaf” value [3, 12] was 90, the “Plant response rating, Velvetleaf” value [3, 13] was 5 and the “Plant response rating, Velvetleaf” value [3, 14] was 35. The “Plant response rating, Foxtail, Giant” value [4, 11] was 0, the “Plant response rating, Foxtail, Giant” value [4, 12] was 0 and the “Plant response rating, Foxtail, Giant” value [4, 13] was 0. The “Plant response rating, Foxtail, Giant” value [4, 14] was 0, the “Plant response rating, Pigweed” value [5, 11] was 45 and the “Plant response rating, Pigweed” value [5, 12] was 75. For the same molecule, the “Plant response rating, Pigweed” value [5, 13] was 0, the “Plant response rating, Pigweed” value [5, 14] was 70 and the “Plant response rating, Crabgrass” value [6, 11] was 0. For the same molecule, the “Plant response rating, Crabgrass” value [6, 12] was 0, the “Plant response rating, Crabgrass” value [6, 13] was 0 and the “Plant response rating, Crabgrass” value [6, 14] was 0.

For `COC(=O)c1nc(-c2cccc(C)c2)nc(N)c1Cl` [Compound 97], the “Plant response rating, Morningglory” value [1, 11] was 45, the “Plant response rating, Morningglory” value [1, 12] was 50 and the “Plant response rating, Morningglory” value [1, 13] was 0. For the same molecule, the “Plant response rating, Morningglory” value [1, 14] was 0, the “Plant response rating, Barnyardgrass” value [2, 11] was 30 and the “Plant response rating, Barnyardgrass” value [2, 12] was 10. For the same molecule, the “Plant response rating, Barnyardgrass” value [2, 13] was 0, the “Plant response rating, Barnyardgrass” value [2, 14] was 0 and the “Plant response rating, Velvetleaf” value [3, 11] was 60. For the same molecule, the “Plant response rating, Velvetleaf” value [3, 12] was 70, the “Plant response rating, Velvetleaf” value [3, 13] was 45 and the “Plant response rating, Velvetleaf” value [3, 14] was 50. The “Plant response rating, Foxtail, Giant” value [4, 11] was 0, the “Plant response rating, Foxtail, Giant” value [4, 12] was 0 and the “Plant response rating, Foxtail, Giant” value [4, 13] was 5. The “Plant response rating, Foxtail, Giant” value [4, 14] was 5, the “Plant response rating, Pigweed” value [5, 11] was 10 and the “Plant response rating, Pigweed” value [5, 12] was 30. The “Plant response rating, Pigweed” value [5, 13] was 25, the “Plant response rating, Pigweed” value [5, 14] was 70 and the “Plant response rating, Crabgrass” value [6, 11] was 0. For the same molecule, the “Plant response rating, Crabgrass” value [6, 12] was 0, the “Plant response rating, Crabgrass” value [6, 13] was 15 and the “Plant response rating, Crabgrass” value [6, 14] was 25.

`CC1(C)OCC(COC(=O)c2nc(C3CC3)nc(N)c2Cl)O1` (stereo not drawn) [Compound 147] was tested, and the “Plant response rating, Morningglory” value [1, 11] was 85, the “Plant response rating, Morningglory” value [1, 12] was 100 and the “Plant response rating, Morningglory” value [1, 13] was 95. For the same molecule, the “Plant response rating, Morningglory” value [1, 14] was 100, the “Plant response rating, Barnyardgrass” value [2, 11] was 80 and the “Plant response rating, Barnyardgrass” value [2, 12] was 90. The “Plant response rating, Barnyardgrass” value [2, 13] was 70, the “Plant response rating, Barnyardgrass” value [2, 14] was 85 and the “Plant response rating, Velvetleaf” value [3, 11] was 80. The “Plant response rating, Velvetleaf” value [3, 12] was 100, the “Plant response rating, Velvetleaf” value [3, 13] was 75 and the “Plant response rating, Velvetleaf” value [3, 14] was 95. For the same molecule, the “Plant response rating, Foxtail, Giant” value [4, 11] was 60, the “Plant response rating, Foxtail, Giant” value [4, 12] was 90 and the “Plant response rating, Foxtail, Giant” value [4, 13] was 40. For the same molecule, the “Plant response rating, Foxtail, Giant” value [4, 14] was 85, the “Plant response rating, Pigweed” value [5, 11] was 85 and the “Plant response rating, Pigweed” value [5, 12] was 95. For the same molecule, the “Plant response rating, Pigweed” value [5, 13] was 80, the “Plant response rating, Pigweed” value [5, 14] was 90 and the “Plant response rating, Crabgrass” value [6, 11] was 25. For the same molecule, the “Plant response rating, Crabgrass” value [6, 12] was 75, the “Plant response rating, Crabgrass” value [6, 13] was 70 and the “Plant response rating, Crabgrass” value [6, 14] was 80.
